Data on 12 compounds can be found in ChEMBL document CHEMBL1201862, “PubChem BioAssay data set” (2004).

Some test systems named below: NCI-H226; DU-145; SR; COLO 205; EKVX; SN12C; HL-60; SK-MEL-2; SW-620; OVCAR-5; MDA-MB-435; RPMI-8226; SK-OV-3; ACHN; SNB-19; MCF7; NCI/ADR-RES; UO-31; CCRF-CEM; T47D.
Holding throughout (assay): DTP human tumour cell line panel, 48 h

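How tested: cells in 96-well plates exposed to compound for 48 hours at five concentrations. GI50 = concentration required for 50% inhibition of growth.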 Active and inactive are the calls of the source. Rule as the data show it: active = GI50 up to about 1.1 µM and inactive = higher. A value given as a limit tells only on which side of the number the result lay.

As a reminder, the GI50 is the concentration giving 50% growth inhibition.

On to `COc1cccc(C2C3=C(COC3=O)Oc3cc4c(cc32)OCO4)c1` (stereo not given), for which the concentration for 50% growth inhibition (GI50) with NCI-H226 was 0.0611 µM (active); with DU-145, 0.0375 µM (active); in the test on SR, < 0.0135 µM (active); in the test with COLO 205 it was 0.0233 µM (active); with EKVX, 0.177 µM (active); in the test with SN12C, 0.078 µM (active). The GI50 in the test on HL-60 is < 0.0146 µM (active); in the test on SK-MEL-2, < 0.0247 µM (active); with SW-620 it was 0.0188 µM (active); in the test with OVCAR-5 it was 0.52 µM (active); in the test with MDA-MB-435 it was < 0.01 µM (active); in the test on RPMI-8226 it was 0.0156 µM (active). Besides, the GI50 is 0.0414 µM (active) in the test on SK-OV-3; 0.0432 µM (active) in the test on ACHN; 0.187 µM (active) in the test on SNB-19; 0.0246 µM (active) with MCF7; 0.0168 µM (active) with NCI/ADR-RES; 0.0927 µM (active) in the test with UO-31. The GI50 in the test on CCRF-CEM was 0.0192 µM (active).
`O=NN(CCCl)C(=O)N[C@H]1CC[C@@H](CC(=O)O)CC1`: the GI50 with NCI-H226 was > 100 µM (inactive); with COLO 205, > 100 µM (inactive); in the test on EKVX it was > 100 µM (inactive); in the test with SN12C, > 100 µM (inactive); in the test with HL-60, 38.3 µM (inactive); in the test with SK-MEL-2, > 100 µM (inactive). Moreover, the GI50 with SW-620 is > 100 µM (inactive); in the test on OVCAR-5, > 100 µM (inactive); with RPMI-8226, 35.2 µM (inactive); in the test with SK-OV-3 it was > 100 µM (inactive); with SNB-19, 99.3 µM (inactive); with MCF7 it was > 100 µM (inactive). The GI50 was > 100 µM (inactive) in the test on NCI/ADR-RES, > 100 µM (inactive) in the test with UO-31 and 28.6 µM (inactive) in the test on CCRF-CEM.
For `O[C@@H]1C[C@H]2N3CC[C@@]2(c2cc4c(cc2C3)OCO4)[C@H]2O[C@@H]12`, the concentration for 50% growth inhibition (GI50) was 0.0271 µM (active) with NCI-H226; > 100 µM (inactive) in the test on DU-145; < 0.01 µM (active) in the test with COLO 205; > 100 µM (inactive) in the test with EKVX; > 100 µM (inactive) in the test on SN12C; > 100 µM (inactive) with HL-60. The GI50 with SK-MEL-2, with SW-620, in the test on OVCAR-5, in the test on MDA-MB-435, with RPMI-8226 and in the test on SK-OV-3 was > 100 µM (inactive) each time. Also, the GI50 in the test on ACHN, in the test with SNB-19, with MCF7, with NCI/ADR-RES, in the test with UO-31 and in the test on CCRF-CEM was > 100 µM (inactive) throughout.
Regarding `NC(=O)c1cnc2sc3ccccc3n2c1=O`, the GI50 is 34.5 µM (inactive) with NCI-H226; > 100 µM (inactive) in the test on DU-145; > 100 µM (inactive) in the test on SR; > 100 µM (inactive) in the test with COLO 205; 21.9 µM (inactive) in the test with EKVX; > 100 µM (inactive) in the test with SN12C. The GI50 with HL-60, in the test with SK-MEL-2, with SW-620, with OVCAR-5, in the test on RPMI-8226 and in the test with T47D was > 100 µM (inactive) throughout. In addition, the GI50 in the test on SK-OV-3 is > 100 µM (inactive); with ACHN, > 100 µM (inactive); in the test with SNB-19 it was > 100 µM (inactive); in the test on MCF7, > 100 µM (inactive); in the test on NCI/ADR-RES, > 100 µM (inactive); with UO-31, 77.1 µM (inactive). The GI50 in the test on CCRF-CEM was > 100 µM (inactive).
Consider `NS(=O)(=O)c1nnc(NC(=O)N(c2ccccc2)c2ccccc2)s1`, for which the GI50 is 41.5 µM (inactive) in the test on NCI-H226; 14.2 µM (inactive) with DU-145; 37.9 µM (inactive) with COLO 205; 24.8 µM (inactive) in the test with EKVX; 15.8 µM (inactive) in the test on SN12C; 16.3 µM (inactive) in the test on HL-60. The GI50 was 31.3 µM (inactive) with SK-MEL-2; 29.9 µM (inactive) in the test on SW-620; 24.8 µM (inactive) in the test on OVCAR-5; 23.4 µM (inactive) with MDA-MB-435; 17 µM (inactive) in the test with RPMI-8226; 59.6 µM (inactive) with SK-OV-3. Also, the GI50 in the test with SNB-19 is 24.4 µM (inactive); in the test on MCF7, 38.1 µM (inactive); in the test with NCI/ADR-RES, 18.2 µM (inactive); with UO-31, 24 µM (inactive); in the test on CCRF-CEM, 20.1 µM (inactive).
For the compound `S=C1NNC(=S)NN1`, the GI50 was > 1 µM (active) in the test with NCI-H226; 0.316 µM (active) with DU-145; 0.239 µM (active) in the test with SR; > 1 µM (active) in the test with COLO 205; > 1 µM (active) in the test on EKVX; 0.198 µM (active) in the test on SN12C. Moreover, the concentration for 50% growth inhibition (GI50) in the test with HL-60 is > 1 µM (active); with SK-MEL-2, > 1 µM (active); in the test on SW-620, 0.218 µM (active); in the test with RPMI-8226 it was 0.288 µM (active); with T47D it was 0.951 µM (active); with SK-OV-3, > 1 µM (active). The 50% growth inhibitory concentration (GI50) in the test with ACHN was 0.582 µM (active); with SNB-19 it was > 1 µM (active); in the test on MCF7, 0.328 µM (active); in the test on NCI/ADR-RES, > 1 µM (active); in the test on UO-31 it was > 1 µM (active); in the test on CCRF-CEM it was 0.342 µM (active).
On to `O=C(/C=C/C1C(=O)NC(=O)NC1=O)CC(=O)C(=O)Nc1cc(Cl)c(Cl)cc1Cl`, for which the GI50 with NCI-H226, with SR, with COLO 205, with EKVX, with SN12C and with HL-60 was > 100 µM (inactive) in each case. In addition, the GI50 with SK-MEL-2, in the test with SW-620, in the test on OVCAR-5, with RPMI-8226, in the test on SK-OV-3 and in the test on ACHN was > 100 µM (inactive) in each case. For the same compound, the GI50 in the test with SNB-19, in the test on UO-31 and with CCRF-CEM was > 100 µM (inactive) in each case.
For the compound `CC1OC(OCC2OC(Oc3c(-c4ccc(O)cc4)oc4cc(O)cc(O)c4c3=O)C(OC3OC(C)C(O)C(O)C3O)C(O)C2O)C(O)C(O)C1O` (stereo not given), the GI50 with NCI-H226 was > 100 µM (inactive); in the test with SR, > 100 µM (inactive); in the test on COLO 205 it was > 46 µM (inactive); in the test on EKVX it was > 100 µM (inactive); with SN12C, > 100 µM (inactive); in the test on HL-60 it was > 100 µM (inactive). In addition, the GI50 in the test on SK-MEL-2 is > 100 µM (inactive); with SW-620, > 36.2 µM (inactive); in the test on OVCAR-5 it was > 100 µM (inactive); in the test with RPMI-8226 it was > 56.8 µM (inactive); in the test on SK-OV-3 it was > 100 µM (inactive); in the test with ACHN, > 67.6 µM (inactive). The values for the GI50 in the test on SNB-19, with UO-31 and in the test with CCRF-CEM were > 100 µM (inactive), > 100 µM (inactive) and > 51.5 µM (inactive), respectively.
For the compound `Cc1ccc(C2C(Cl)C(=O)N2n2cnc3ccccc3c2=O)cc1` (stereo not given), the GI50 in the test with NCI-H226 was 26 µM (inactive); with SR, 21.5 µM (inactive); in the test with COLO 205 it was > 100 µM (inactive); in the test on EKVX, 26.5 µM (inactive); with SN12C, > 100 µM (inactive); in the test on HL-60 it was 29.6 µM (inactive). Further, the GI50 in the test on SK-MEL-2 was > 100 µM (inactive); in the test with SW-620, > 100 µM (inactive); in the test on OVCAR-5, > 100 µM (inactive); in the test on RPMI-8226, 37.3 µM (inactive); in the test with SK-OV-3, 67.3 µM (inactive); with ACHN, > 100 µM (inactive). Further, the GI50 in the test with SNB-19 is 44 µM (inactive); with UO-31, 23.4 µM (inactive); with CCRF-CEM, > 100 µM (inactive).
On to `COc1ccc(C(=O)C(C(=O)CCC(=O)Nc2cccc(C(F)(F)F)c2)c2ccccc2)cc1` (stereo not given), for which the GI50 in the test with NCI-H226 is > 100 µM (inactive); in the test on SR, 62.7 µM (inactive); in the test on COLO 205, > 100 µM (inactive); in the test on EKVX, > 100 µM (inactive); in the test on SN12C, > 100 µM (inactive); in the test on HL-60 it was 61.2 µM (inactive). Further, the GI50 in the test on SK-MEL-2 was 96.8 µM (inactive); in the test with SW-620, > 100 µM (inactive); in the test with OVCAR-5 it was > 100 µM (inactive); in the test with RPMI-8226 it was 55.2 µM (inactive); in the test with SK-OV-3, > 100 µM (inactive); with ACHN, 80.7 µM (inactive). Also, the values for the GI50 in the test with SNB-19, in the test with UO-31 and in the test with CCRF-CEM were > 100 µM (inactive), 55.1 µM (inactive) and 46.8 µM (inactive), respectively.
Take `CCC(=O)O[C@@H]1C2C(OC(C)=O)C34COC(C)([C@@H]3C3C(C[C@]3(C)OC(C)=O)[C@@H](OC(=O)c3ccccc3)C4=O)[C@H](OC(C)=O)[C@@]2(OC(C)=O)C[C@@H]1C` (stereo not given in full): the GI50 in the test with NCI-H226 was 20 µM (inactive); in the test with SR, 54.1 µM (inactive); in the test on COLO 205, 43.5 µM (inactive); with EKVX, 87.1 µM (inactive); with SN12C, > 100 µM (inactive); with HL-60, 15.6 µM (inactive). For the same compound, the GI50 in the test on SK-MEL-2 is 79.4 µM (inactive); in the test on SW-620, 47.8 µM (inactive); with OVCAR-5, 94.4 µM (inactive); with RPMI-8226 it was > 100 µM (inactive); in the test with SK-OV-3, 15.7 µM (inactive); in the test on ACHN it was 36.1 µM (inactive). Moreover, the results for the GI50 in the test on SNB-19, with UO-31 and in the test on CCRF-CEM were 14 µM (inactive), 59.8 µM (inactive) and 17.5 µM (inactive), respectively.
For `CC1(O)C=CC2CCC1C2O` (stereo not given), the GI50 is > 100 µM (inactive) with NCI-H226; 23.7 µM (inactive) in the test with SR; 30.3 µM (inactive) in the test on COLO 205; > 100 µM (inactive) in the test with EKVX; > 100 µM (inactive) in the test with SN12C; > 100 µM (inactive) in the test with HL-60. Also, the GI50 in the test on SK-MEL-2 is > 100 µM (inactive); in the test on OVCAR-5, > 100 µM (inactive); in the test on RPMI-8226, 28.2 µM (inactive); in the test with SK-OV-3, > 100 µM (inactive); with ACHN, > 100 µM (inactive); with SNB-19, > 100 µM (inactive). Also, the GI50 in the test with UO-31 and in the test on CCRF-CEM was > 100 µM (inactive) in each case.
